# Source: patent US20080155704A1, “Methods and Compositions for Determining in vivo Activity of BiP” (King's College London, priority 2006, published 2008)
# Test system: allogeneic T cells
# Experiment: Allogeneic proliferative response to early BiP treated DC (tritiated thymidine uptake)
# Format: cell-based, human
# Settings: DC differentiated with BiP 20 μg/ml
# Method: Allogeneic responses by T cells in culture with irradiated (3,000 rads) early DC (eDC), after only 3d in culture with GM-CSF and IL-4 in the presence or absence of BiP (20 μg/ml) at a ratio of 10:1 PBMC:DC (105:10^4 cells/well). The results are shown as an allogeneic proliferative response (A) following addition of neutralizing anti-IL-10 ( 1/100 dilution) antibody and (B) the pre-treatment (2 h) of monocytes (MO) with p38 inhibitor, SB203580 (SB)(10 μM) or the ERK1/2 inhibitor, PD 98059 (PD)(10 μM), prior to the addition of GM-CSF and IL-4 to the cultures. The proliferation of PBMC to early DC following (C) the addition of BiP 24 h post addition of GM-CSF and IL-4. Proliferation was measured by uptake of tritiated thymidine and recorded as counts per minute (cpm). ELISA was used to detect IL-10 (D) in the culture supernatants and (E) by 7d cultured iDC/iDC(BiP) and fully matured mDC/mDC(BiP) differentiated as described in following 7d culture in GM-CSF and IL-4 with LPS (500 ng/ml) added for the final 2d.
# To neutralize IL-10 within the cultures anti-IL-10 antibody (ATCC, Rockville, USA) was added at day 0 (5 μg/ml) to GM-CSF and IL-4 treated cultures in the presence and absence of BiP (20 μg/ml). Two specific cell-permeable inhibitors of the MAPK intracellular signalling pathways were used. SB203580 (SB)(10 μM)((Calbiochem, Darmstadt, Germany) inhibits p38 MAPK, and PD98059 (PD) (10 μM)(Calbiochem), an inhibitor of MAPK extracellular signal regulated kinase (ERK), were tested. MO were pre-treated with the inhibitors for 2 h before adding GM-CSF and IL-4 in the presence or absence of BiP.
substance,measurement,value
BiP: 78 kD endoplasmic reticulum chaperone protein as disclosed in WO 00/21995; recombinant human protein,proliferation of allogeneic T cells stimulated by iDC(BiP) or mDC(BiP),significantly reduced proliferation
